Source: patent US20050153943A1, “Methods of simultaneously treating mucositis and fungal infection” (priority 2002, published 2005)

Legend:
Experiment in all cases: Fungal growth on SABHI agar containing CMT (Example 38)
Format in all cases: cell-based
[1] = tested on: Candida albicans, ATCC 14053; conditions: for Growth at 25 μg/ml compared to control at 24 hrs incubation / Growth at 25 μg/ml compared to control at 48 hours: 30° C., growth grade; for Anti-fungal activity (summary in words): 25 μg/ml agar, Example 38
Method: (§1) The following fungi were inoculated onto potato dextrose agar (PDA) from stock cultures and incubated aerobically at 30° C.: Aspergillus [NT] 1022, Penicillium sp. (laboratory isolate), Candida albicans, ATCC 14053, and Rhizopus sp. […] The conidia were suspended in 0.9% saline and the turbidity was adjusted to match a 0.5 MacFarland standard (equivalent to approximately 1.5×10^8 cells). Candida albicans was suspended in saline and adjusted to 0.5 MacFarland in a similar manner. These suspensions were diluted 1:100 in sterile 0.9% saline. SABHI Agar (Difco) pH 7.0 was prepared in 100 ml amounts and sterilized at 121° C. for 15 min. […] SABHI Agar plates of each CMT and SAHBI agar without CMT using dimethylsulphoxide (DMSO) as a control were inoculated with 10 μl of conidia suspension of Aspergillus fumigatus, Penicillium sp. and Rhizopus sp. and 10 μl suspension of Candida albicans prepared as described above. The plates were then incubated aerobically for 24 hour and for 48 hours at 30° C. The results are set forth in Table 1 (24 hr. incubation) and Table 2 (48 hr. incubation). [table]

[2] = tested on: Penicillium sp. (laboratory isolate); conditions: for Growth at 25 μg/ml compared to control at 24 hrs incubation / Growth at 25 μg/ml compared to control at 48 hours: 30° C., growth grade; for Anti-fungal activity (summary in words): 25 μg/ml agar, Example 38
Method: as §1

[3] = tested on: Aspergillus fumigatus ATCC 1022; conditions: for Growth at 25 μg/ml compared to control at 24 hrs incubation / Growth at 25 μg/ml compared to control at 48 hours: 30° C., growth grade; for Anti-fungal activity (summary in words): 25 μg/ml agar, Example 38
Method: as §1

[4] = tested on: Rhizopus sp.; conditions: for Growth at 25 μg/ml compared to control at 24 hrs incubation / Growth at 25 μg/ml compared to control at 48 hours: 30° C., growth grade
Method: as §1

| Compound | Growth at 25 μg/ml compared to control at 24 hrs incubation [1] | Growth at 25 μg/ml compared to control at 48 hours [1] | Growth at 25 μg/ml compared to control at 24 hrs incubation [2] | Growth at 25 μg/ml compared to control at 48 hours [2] | Growth at 25 μg/ml compared to control at 24 hrs incubation [3] | Growth at 25 μg/ml compared to control at 48 hours [3] | Growth at 25 μg/ml compared to control at 24 hrs incubation [4] | Growth at 25 μg/ml compared to control at 48 hours [4] | Anti-fungal activity (summary in words) [2] | Anti-fungal activity (summary in words) [3] | Anti-fungal activity (summary in words) [1] | Anti-fungal activity (summary in words) ([4]; 25 μg/ml agar, Example 38) |
| --- | --- | --- | --- | --- | --- | --- | --- | --- | --- | --- | --- | --- |
| 4-Dedimethylamino-7-dimethylamino-6-demethyl-6-deoxy-9-ethoxythiocarbonylthio-tetracycline sulfate [Example 7] | 0 (complete inhibition of growth.) | 0 (complete inhibition of growth.) | 3 (25% reduction in growth of colonies compared to control.) | 4 (Level of growth in the absence of anti-fungal agent (control).) | 0 (complete inhibition of growth.) | 4 (Level of growth in the absence of anti-fungal agent (control).) | 4 (Level of growth in the absence of anti-fungal agent (control).) | 3 (25% reduction in growth of colonies compared to control.) | – | – | – | – |
| CC1(O)c2c(Cl)ccc(O)c2C(=O)C2=C(O)C3(O)C(=O)C(C(N)=O)=C(O)CC3CC21 (centres unmarked) [COL 4, 7-chloro-4-dedimethylaminotetracycline] | – | – | – | – | – | – | – | – | demonstrated activity | demonstrated activity | – | – |
| CC1(O)c2cccc(O)c2C(=O)C2=C(O)C3C(=O)C(C(N)=O)=C(O)CC3CC21 (stereo not drawn) [COL 7, 4-dedimethylamino-12α-deoxytetracycline] | – | – | – | – | – | – | – | – | – | – | strong activity | – |
| NC(=O)C1=C(O)CC2CC3Cc4c([N+](=O)[O-])ccc(O)c4C(=O)C3=C(O)C2(O)C1=O (centres unmarked) [COL 302, 7-nitro-6-demethyl-6-deoxy-4-dedimethylaminotetracycline] | 4 (Level of growth in the absence of anti-fungal agent (control).) | 4 (Level of growth in the absence of anti-fungal agent (control).) | 3 (25% reduction in growth of colonies compared to control.) | 4 (Level of growth in the absence of anti-fungal agent (control).) | 0 (complete inhibition of growth.) | 4 (Level of growth in the absence of anti-fungal agent (control).) | 4 (Level of growth in the absence of anti-fungal agent (control).) | 4 (Level of growth in the absence of anti-fungal agent (control).) | – | – | – | – |
| NC(=O)C1=C(O)CC2CC3Cc4ccc([N+](=O)[O-])c(O)c4C(=O)C3=C(O)C2(O)C1=O (centres unmarked) [COL 303, 9-nitro-6-demethyl-6-deoxy-4-dedimethylaminotetracycline] | 3 (25% reduction in growth of colonies compared to control.) | 4 (Level of growth in the absence of anti-fungal agent (control).) | 3 (25% reduction in growth of colonies compared to control.) | 4 (Level of growth in the absence of anti-fungal agent (control).) | – | 4 (Level of growth in the absence of anti-fungal agent (control).) | 4 (Level of growth in the absence of anti-fungal agent (control).) | 4 (Level of growth in the absence of anti-fungal agent (control).) | – | – | – | – |
| CN(C)c1ccc2c(c1O)C(=O)C1=C(O)C3(O)C(=O)C(C(N)=O)=C(O)CC3CC1C2 (centres unmarked) [COL 306, 9-dimethylamino-6-demethyl-6-deoxy-4-dedimethylaminotetracycline] | 3 (25% reduction in growth of colonies compared to control.) | 4 (Level of growth in the absence of anti-fungal agent (control).) | 3 (25% reduction in growth of colonies compared to control.) | 4 (Level of growth in the absence of anti-fungal agent (control).) | 1 (75% reduction in growth in colonies compared to control.) | 4 (Level of growth in the absence of anti-fungal agent (control).) | 4 (Level of growth in the absence of anti-fungal agent (control).) | 4 (Level of growth in the absence of anti-fungal agent (control).) | – | – | – | – |
| NC(=O)C1=C(O)CC2CC3Cc4ccc(N)c(O)c4C(=O)C3=C(O)C2(O)C1=O (centres unmarked) [COL 308, 9-amino-6-demethyl-6-deoxy-4-dedimethylaminotetracycline] | 4 (Level of growth in the absence of anti-fungal agent (control).) | 4 (Level of growth in the absence of anti-fungal agent (control).) | 0 (complete inhibition of growth.) | 0 (complete inhibition of growth.) | 0 (complete inhibition of growth.) | 1 (75% reduction in growth in colonies compared to control.) | 4 (Level of growth in the absence of anti-fungal agent (control).) | 4 (Level of growth in the absence of anti-fungal agent (control).) | demonstrated activity | demonstrated activity | – | – |
| CN(C)CC(=O)Nc1ccc2c(c1O)C(=O)C1=C(O)C3(O)C(=O)C(C(N)=O)=C(O)CC3CC1C2 (centres unmarked) [COL 309, 9-dimethylaminoacetamido-6-demethyl-6-deoxy-4-dedimethylaminotetracycline] | 4 (Level of growth in the absence of anti-fungal agent (control).) | 4 (Level of growth in the absence of anti-fungal agent (control).) | 3 (25% reduction in growth of colonies compared to control.) | 4 (Level of growth in the absence of anti-fungal agent (control).) | – | 4 (Level of growth in the absence of anti-fungal agent (control).) | 4 (Level of growth in the absence of anti-fungal agent (control).) | 4 (Level of growth in the absence of anti-fungal agent (control).) | – | – | – | – |
| O=C(NCN1CCNCC1)C1=C(O)CC2CC3Cc4cccc(O)c4C(=O)C3=C(O)C2(O)C1=O (centres unmarked) [COL 315, 2-CONHCH2-piperazin-1-yl-6-demethyl-6-deoxy-4-dedimethylaminotetracycline] | 0 (complete inhibition of growth.) | 0 (complete inhibition of growth.) | 0 (complete inhibition of growth.) | 0 (complete inhibition of growth.) | 0 (complete inhibition of growth.) | 0 (complete inhibition of growth.) | 1 (75% reduction in growth in colonies compared to control.) | 1 (75% reduction in growth in colonies compared to control.) | activity against all the fungi tested | activity against all the fungi tested | activity against all the fungi tested | activity against all the fungi tested |
| CC(=O)Nc1cc(N(C)C)c2c(c1O)C(=O)C1=C(O)C3(O)C(=O)C(C(N)=O)=C(O)CC3CC1C2.O=S(=O)(O)O (centres unmarked) [Example 3, 9-Acetamido-4-dedimethylamino-7-dimethylamino-6-demethyl-6-deoxytetracycline sulfate] | 1 (75% reduction in growth in colonies compared to control.) | 4 (Level of growth in the absence of anti-fungal agent (control).) | 0 (complete inhibition of growth.) | 4 (Level of growth in the absence of anti-fungal agent (control).) | 0 (complete inhibition of growth.) | 4 (Level of growth in the absence of anti-fungal agent (control).) | 3 (25% reduction in growth of colonies compared to control.) | 1 (75% reduction in growth in colonies compared to control.) | – | – | – | – |
